What all share (assay type): biochemical
Assay [1] deals with T1, HsPINK1 (Homo sapiens, UniProt Q9BXM7, M318A).
T1 construct: gene PINK1; HsPINK1 expressed transiently (pcDNA5d3) in HeLa PINK1-/- cells; heavy membrane fraction after oligomycin/antimycin treatment
The experiment in a line: ubiquitin phosphorylation by heavy membranes, pSer65 Western blot. Conditions: 15 uM ubiquitin, pH 7.4, 30 C. Background: In western blotting, separated proteins are transferred to a membrane and probed.

Assay [2] deals with T2, PhPINK1 (residues 115 to 575) (Pediculus humanus, UniProt E0W1I1).
T2 construct: gene Pink1; residues 115-575, kinase domain with N- and C-terminal extensions; E. coli Rosetta2; N-terminal GST tag with 3C protease site in vector; autophosphorylated monomer for thermal shift, lambda-phosphatase-treated homo-dodecamer (six dimers) for cryo-EM
T2 sequence (E0W1I1 115-575): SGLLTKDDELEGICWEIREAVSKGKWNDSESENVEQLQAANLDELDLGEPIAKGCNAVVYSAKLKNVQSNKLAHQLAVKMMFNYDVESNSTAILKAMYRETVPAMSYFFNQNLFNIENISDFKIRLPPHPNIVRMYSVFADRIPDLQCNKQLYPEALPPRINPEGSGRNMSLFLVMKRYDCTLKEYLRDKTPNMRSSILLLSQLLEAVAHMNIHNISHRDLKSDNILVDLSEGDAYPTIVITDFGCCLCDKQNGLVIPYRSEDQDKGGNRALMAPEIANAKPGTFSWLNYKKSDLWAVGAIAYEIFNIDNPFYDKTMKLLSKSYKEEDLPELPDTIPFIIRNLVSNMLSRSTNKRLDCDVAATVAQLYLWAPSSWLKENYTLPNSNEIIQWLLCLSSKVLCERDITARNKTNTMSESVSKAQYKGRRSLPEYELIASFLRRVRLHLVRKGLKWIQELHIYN
The experiment in a line: ubiquitin phosphorylation, Phos-tag SDS-PAGE. The conditions noted are these: 1 mM ATP, 15 uM ubiquitin, 10 mM MgCl2, pH 7.4, 22 C.

Assay [3] has as its target T3, HsPINK1 (Homo sapiens, UniProt Q9BXM7, M318G).
T3 construct: gene PINK1; HsPINK1 expressed transiently (pcDNA5d3) in HeLa PINK1-/- cells; heavy membrane fraction after oligomycin/antimycin treatment
The experiment in a line: ubiquitin phosphorylation by heavy membranes, pSer65 Western blot. Conditions: 1 mM KTP, 15 uM ubiquitin, pH 7.4, 30 C.

The values below come from article PMC10798554, “Interaction of PINK1 with nucleotides and kinetin” (Science Advances, 2024).

T1 sequence (Q9BXM7 78-581 M318A): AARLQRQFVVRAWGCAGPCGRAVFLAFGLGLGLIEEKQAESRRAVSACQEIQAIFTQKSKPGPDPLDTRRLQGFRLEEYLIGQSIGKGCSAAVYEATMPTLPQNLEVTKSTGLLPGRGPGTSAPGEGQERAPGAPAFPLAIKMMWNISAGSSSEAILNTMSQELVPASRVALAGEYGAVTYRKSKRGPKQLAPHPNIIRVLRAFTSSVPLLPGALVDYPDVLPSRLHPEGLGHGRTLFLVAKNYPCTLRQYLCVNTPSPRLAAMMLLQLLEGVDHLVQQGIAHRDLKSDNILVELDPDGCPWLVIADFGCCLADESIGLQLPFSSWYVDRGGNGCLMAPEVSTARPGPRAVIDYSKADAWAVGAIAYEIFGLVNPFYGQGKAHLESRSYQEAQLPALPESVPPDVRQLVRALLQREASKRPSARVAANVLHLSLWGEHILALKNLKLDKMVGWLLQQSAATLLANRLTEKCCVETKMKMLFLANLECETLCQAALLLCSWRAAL
T3 sequence (Q9BXM7 78-581 M318G): as the sequence (Q9BXM7 78-581 M318A) above, with A241G counted along it

For the compound `Nc1ncnc2c1ncn2[C@@H]1O[C@H](COP(=O)(O)OP(=O)(O)OP(=O)(O)O)[C@@H](O)[C@H]1O` [ATP], the “ubiquitin phosphorylation by heavy membranes, pSer65 Western blot” value at HsPINK1 [1] (1 mM ATP) is “HsPINK1 M318A, is active with both ATP and KTP”. Further, the “ubiquitin phosphorylation, Phos-tag SDS-PAGE” value in assay [2] is listed as “Time course ubiquitin phosphorylation assay using WT PhPINK1 in the presence of ATP”.

In the case of `O=P(O)(O)OP(=O)(O)OP(=O)(O)OC[C@H]1O[C@@H](n2cnc3c(NCc4ccco4)ncnc32)[C@H](O)[C@@H]1O` [KTP], the “ubiquitin phosphorylation by heavy membranes, pSer65 Western blot” value at HsPINK1 [3] and on HsPINK1 [1] (1 mM KTP) was “both mutants were able to use KTP instead of ATP to generate phospho-ubiquitin” in each case.
